# Entries after “also recorded” stand apart in the source; their conditions may differ. Where two headings read alike, the source gives them in different places.
# Columns and labels:
# [1] = system: C57BL/6J mice; assay: DOI-elicited head-twitch response (HTR); assay type: in vivo, mouse
# From the text: The 5-HT2A receptor is a predominant 5-HT receptor in the cortex, and serves important excitation modulation functions on glutamate pyramidal and GABA neurons.
# [2] = system: Fmr1 knockout and wild-type mice; assay: c-Fos immunohistochemistry in brain of wild-type and Fmr1 knockout mice; assay type: in vivo, mouse; conditions: for c-Fos expression in the inferior colliculus: juvenile Fmr1 knockout mice, 30 seconds 120 dB alarm
# Procedure: Brains are excised and post-fixed overnight in 4% paraformaldehyde, followed by 20% glycerol in TBS for at least 24 hrs. Coronal sections (40 μm) traversing regions of interest then be collected using a Leica CM1950 cryostat, and placed in cold TBS. c-Fos IHC is performed using free-floating IHC methods as have been previously described, but with a new primary antibody. A protocol with the Abcam [2H2] (ab208942) mouse monoclonal antibody has been recently optimized, which has essentially no cross-reactivity. An HRP-conjugated secondary antibody is used for visualization by the biotin-streptavidin technique using 3,3′-diaminobenzidine as the chromagen (Vectastain Elite, Vector Laboratories). Examination of c-Fos expression in frontal cortex, hypothalamus, nucleus accumbens, ventral tegmental area, amygdala, BNST, and hippocampus are conducted.
# On the basis of the distribution of FMRP (Fragile X mental retardation protein) in the adult mouse brain and considering neural systems implicated in cognitive and neuropsychiatric symptoms (e.g., anxiety, sensory hypersensitivity, and social deficits) present in FXS and ASD, the effects of FPT were evaluated on c-Fos expression in the hippocampus (CA1, CA3, and dentate gyrus (DG)), the basolateral amygdala (ventral (BLAv), posterior (BLAp), and anterior (BLAa)), the somatosensory (SS) cortex, the hypothalamus (periventricular hypothalamic nucleus, intermediate (PVi), posterior hypothalamic nucleus (PH), and dorsomedial nucleus of the hypothalamus (DMH)), the paraventricular nucleus of the thalamus (PVT), and the ventral retrosplenial area (RSPv). Shown in FIG. 15A and FIG. 15B are results from analyses of c-Fos expression in CA3 and the BLAa, respectively. There were no main effects of the independent variables on c-Fos in CA3; however, there was a significant treatment effect in BLAa (F(1, 12)=14.22, P=0.0027). […] The effect was large, but the difference was not statistically significant (P=0.0871, d=1.54).
# [3] = biological target: T1, 5HT2B receptors (Homo sapiens, UniProt P41595); assay: Affinity at 5HT2B receptors; assay type: binding
# T1 construct: host or cells: HEK293, transient
# [4] = system: mice (C57BL/6J, FVB, C58/J); assay: Locomotor behavior, compound on its own; assay type: in vivo, mouse; conditions: compound on its own or in the DOI assay; listed as (2S)-5-FPT, HCl
# [5] = system: BL/6J mice; assay: Serotonin syndrome-like behavior observation; assay type: in vivo, mouse
# [6] = biological target: T2, D2 receptors (Homo sapiens, UniProt P14416); assay: Affinity at dopamine D2 receptors; assay type: binding
# T2 construct: host or cells: HEK293, transient
# [7] = biological target: T3, 5HT7 (Homo sapiens, UniProt P34969); assay: 5HT7 function, Gs-cAMP signaling (HEK293 cells); assay type: cell-based; design: ATCC CRL-1573 (cells); conditions: for Function at 5HT7: cAMP signaling, HCl
# From the text: It is certain that the C(5) substituent impacts function. […] In FIG. 3, results of measured (S)-5-PAT scaffold yields with various function as 5HT7 ligands are compared with AS-19 and clozapine.
# [8] = biological target: T3, 5HT7; assay: Affinity (Ki) at 5HT7, HEK293 cells stably expressing 5HT7
# [9] = biological target: T4, 5HT2C receptors (Homo sapiens, UniProt P28335); assay: 5HT2C functional assay; assay type: cell-based; conditions: read-out: EC50 at 5HT2C receptors (agonist)
# T4 construct: host or cells: HEK293, transient
# T4 sequence (P28335 33-458): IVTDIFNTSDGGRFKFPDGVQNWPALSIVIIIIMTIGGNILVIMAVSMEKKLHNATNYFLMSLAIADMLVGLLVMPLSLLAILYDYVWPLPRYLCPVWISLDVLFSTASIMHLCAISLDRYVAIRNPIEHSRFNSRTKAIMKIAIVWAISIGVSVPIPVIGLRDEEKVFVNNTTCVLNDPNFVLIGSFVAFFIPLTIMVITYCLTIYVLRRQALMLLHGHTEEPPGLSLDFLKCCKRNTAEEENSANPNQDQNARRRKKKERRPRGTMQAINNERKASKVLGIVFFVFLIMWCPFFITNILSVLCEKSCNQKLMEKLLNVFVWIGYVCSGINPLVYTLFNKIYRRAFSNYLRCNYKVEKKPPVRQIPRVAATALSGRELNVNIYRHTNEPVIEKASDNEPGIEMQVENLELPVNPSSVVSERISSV
# [10] = biological target: T5, 5HT1A (Homo sapiens, UniProt P08908); assay: 5HT1A function, Gαi cAMP signaling (CHO cells); assay type: cell-based
# T5 sequence (P08908 1-422): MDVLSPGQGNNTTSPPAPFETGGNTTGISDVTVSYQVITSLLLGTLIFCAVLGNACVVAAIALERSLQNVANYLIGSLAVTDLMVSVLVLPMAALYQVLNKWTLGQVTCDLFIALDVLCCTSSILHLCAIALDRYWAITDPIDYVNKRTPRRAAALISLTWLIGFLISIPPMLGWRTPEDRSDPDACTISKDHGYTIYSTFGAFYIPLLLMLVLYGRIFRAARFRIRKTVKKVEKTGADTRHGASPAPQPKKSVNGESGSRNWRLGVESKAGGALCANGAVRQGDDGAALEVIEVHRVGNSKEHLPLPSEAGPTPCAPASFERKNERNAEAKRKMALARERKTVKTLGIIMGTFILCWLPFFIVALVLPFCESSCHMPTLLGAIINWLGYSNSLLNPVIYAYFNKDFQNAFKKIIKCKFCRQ
# [11] = mouse, in vivo, listed as (2S)-5-FPT, HCl
# T3 sequence (P34969 whole entry): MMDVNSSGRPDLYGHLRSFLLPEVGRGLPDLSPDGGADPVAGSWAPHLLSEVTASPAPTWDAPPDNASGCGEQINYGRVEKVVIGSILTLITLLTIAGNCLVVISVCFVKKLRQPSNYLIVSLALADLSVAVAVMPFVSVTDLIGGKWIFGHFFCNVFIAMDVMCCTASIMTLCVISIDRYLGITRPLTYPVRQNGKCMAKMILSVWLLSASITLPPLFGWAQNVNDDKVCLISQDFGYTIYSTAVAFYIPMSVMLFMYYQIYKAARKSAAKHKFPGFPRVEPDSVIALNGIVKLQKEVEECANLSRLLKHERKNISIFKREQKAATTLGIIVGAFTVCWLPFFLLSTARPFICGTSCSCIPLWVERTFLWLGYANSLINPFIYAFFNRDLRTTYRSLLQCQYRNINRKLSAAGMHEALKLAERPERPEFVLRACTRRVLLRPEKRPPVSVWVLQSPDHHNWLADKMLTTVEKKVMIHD
# T2 sequence (P14416 whole entry): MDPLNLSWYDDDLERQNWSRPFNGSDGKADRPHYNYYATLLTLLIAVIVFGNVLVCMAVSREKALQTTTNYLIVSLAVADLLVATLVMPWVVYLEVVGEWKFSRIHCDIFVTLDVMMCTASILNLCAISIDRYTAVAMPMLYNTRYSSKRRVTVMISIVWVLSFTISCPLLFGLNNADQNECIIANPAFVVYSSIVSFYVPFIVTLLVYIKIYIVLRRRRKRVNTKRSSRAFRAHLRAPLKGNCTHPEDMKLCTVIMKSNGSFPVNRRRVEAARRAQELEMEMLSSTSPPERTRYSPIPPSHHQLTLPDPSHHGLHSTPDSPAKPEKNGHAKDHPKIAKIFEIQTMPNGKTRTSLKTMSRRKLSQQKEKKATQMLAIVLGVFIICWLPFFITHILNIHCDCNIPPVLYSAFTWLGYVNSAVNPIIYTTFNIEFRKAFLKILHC
# T1 sequence (P41595 whole entry): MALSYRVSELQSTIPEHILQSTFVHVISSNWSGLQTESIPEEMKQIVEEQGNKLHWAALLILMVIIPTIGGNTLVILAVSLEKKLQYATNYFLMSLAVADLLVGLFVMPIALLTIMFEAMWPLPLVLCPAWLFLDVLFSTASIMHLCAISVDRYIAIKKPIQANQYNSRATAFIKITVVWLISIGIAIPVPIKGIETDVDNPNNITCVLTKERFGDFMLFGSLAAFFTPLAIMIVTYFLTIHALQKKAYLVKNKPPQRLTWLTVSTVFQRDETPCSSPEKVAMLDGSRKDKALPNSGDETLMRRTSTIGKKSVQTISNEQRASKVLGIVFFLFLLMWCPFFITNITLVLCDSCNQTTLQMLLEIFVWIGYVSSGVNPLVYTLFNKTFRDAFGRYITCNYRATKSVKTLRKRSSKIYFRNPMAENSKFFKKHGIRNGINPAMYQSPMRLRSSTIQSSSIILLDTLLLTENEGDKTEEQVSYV
structure (smiles),measurement,setting,value
"CN(C)[C@H]1CCc2c(cccc2-c2ccccc2F)C1.Cl [(S)-5-FPT, (2S)-5-(2-fluorophenyl)-N,N-dimethyl-1,2,3,4-tetrahydronaphthalen-2-amine HCl]",DOI HTR at 3 hours post-administration,"[1]; 5.6 mg/kg, 3 hours post-administration",did not block the DOI HTR
same,Time for which attenuation of the DOI HTR remained significant,"[1]; 5.6 mg/kg, post-administration",up to 2 hours
same,DOI-elicited HTR,[1]; [11],dose-dependently attenuated the DOI-elicited HTR; also recorded: significantly attenuated
same,Oral activity,[1]; oral administration,orally active
same,c-Fos expression in CA3 region of the hippocampus,[2]; WT and KO mice,did not significantly increase c-Fos expression
same,c-Fos expression in the inferior colliculus,[2],did not affect the number of c-Fos positive cells
same,c-Fos expression in the inferior colliculus,"[2]; listed as FPT, HCl",no effect
same,c-Fos expression in other brain regions,"[2]; mouse, in vivo",did not significantly alter c-Fos expression in any other brain region examined
same,Ki,[3],60 nM
same,Locomotor behavior,[4],did not alter locomotion; also recorded: without altering locomotor behavior on its own
same,Flat Body,"[5]; 5.6 mg/kg, mean (SEM) number of six one-minute sessions with the behavior (score/6)",0(0)
same,Forepaw Tread,"[5]; 5.6 mg/kg, mean (SEM) score/6",0(0)
same,Head Weave,"[5]; 5.6 mg/kg, mean (SEM) score/6",0(0)
same,Moon Walk,"[5]; 5.6 mg/kg, mean (SEM) score/6",0.3(0.2)
same,Piloerection,"[5]; 5.6 mg/kg, mean (SEM) score/6",0(0)
same,Straub Tail,"[5]; 5.6 mg/kg, mean (SEM) score/6",0(0)
same,Tremor,"[5]; 5.6 mg/kg, mean (SEM) score/6",0(0)
same,Serotonin syndrome,[5]; [11],did not result in symptoms of serotonin syndrome; also recorded: does not produce serotonin syndrome-like symptoms
same,Affinity at D2 receptors,[6],poor affinity
same,EC50,[7],34 nM
same,"EMAX vs AS-19, 5-HT7 Gs-cAMP signaling",[7],33%
same,Function at 5HT7,[7],Partial agonist
same,Function at 5HT7,[7]; listed as (2S)—S-FPT,partial agonist
same,5-HT7 affinity of (S)-enantiomer over (R)-enantiomer,[8],about 80 times
same,Ki,[8]; Affinity Ki ± SEM at 5HT7,5 nM
same,Ki,"[8]; read-out: Affinity Ki ± SEM at 5HT7, HCl",5.3 ± 2 nM
same,EC50,[9],230 nM
same,Function at 5HT1A,[10],Partial agonist

# From US20230348358A1, “Serotonin Receptor Modulators” (Northeastern University, priority 2020, published 2023)
